Experimental data as given in ChEMBL document CHEMBL4219060, “Discovery of EBI-1051: A novel and orally efficacious MEK inhibitor with benzofuran scaffold” (Bioorg Med Chem, 2018).
Blank lines part the entries; values can stand above or below the compound they belong to. Activity calls are given as the source filed them. No cut-off for these calls is given here.

Legend:
[1] = tested on: COLO 205; assay: Antiproliferative activity against human COLO205 cells harboring BRAF mutant/wild type KRAS/wild type PIK3CA after 72 hrs by CCK8 assay; settings: COLO 205, 72 h
[2] = Cmax in Sprague-Dawley rat at 10 mg/kg, po via gavage; assay type: ADME, organism-based; parameters: dose 10 mg/kg, route oral; settings: in vivo
[3] = AUC (0 to t) in Sprague-Dawley rat at 10 mg/kg, po via gavage; assay type: ADME, organism-based; settings: in vivo
[4] = Half life in Sprague-Dawley rat at 10 mg/kg, po via gavage; assay type: ADME, organism-based; settings: in vivo
[5] = tested on: A549; assay: Antiproliferative activity against human A549 cells harboring KRAS mutant/wild type BRAF/PIK3CA after 72 hrs by CCK8 assay; assay type: functional, cell-based
[6] = tested on: MDA-MB-231; assay: Antiproliferative activity against human MDA-MB-231 cells harboring KRAS mutant/wild type BRAF/PIK3CA after 72 hrs by CCK8 assay; assay type: functional, cell-based
[7] = tested on: COLO 205; assay: Antitumor activity against human COLO205 cells xenografted in athymic nude mouse assessed as tumor growth inhibition at 10 mg/kg, po qd for 14 days measured twice per week during compound dosing relative to control; settings: COLO 205, po, 336 h, read-out: TGI
[8] = tested on: Mus musculus; assay: Toxicity in athymic nude mouse xenografted with human COLO205 cells assessed as body weight loss at 10 mg/kg, po qd for 14 days measured twice per week during compound dosing; assay type: organism-based; settings: in vivo, 336 h
[9] = target: Dual specificity mitogen-activated protein kinase kinase 1 (Homo sapiens, UniProt Q02750)
Chain of Dual specificity mitogen-activated protein kinase kinase 1 (Q02750 whole entry): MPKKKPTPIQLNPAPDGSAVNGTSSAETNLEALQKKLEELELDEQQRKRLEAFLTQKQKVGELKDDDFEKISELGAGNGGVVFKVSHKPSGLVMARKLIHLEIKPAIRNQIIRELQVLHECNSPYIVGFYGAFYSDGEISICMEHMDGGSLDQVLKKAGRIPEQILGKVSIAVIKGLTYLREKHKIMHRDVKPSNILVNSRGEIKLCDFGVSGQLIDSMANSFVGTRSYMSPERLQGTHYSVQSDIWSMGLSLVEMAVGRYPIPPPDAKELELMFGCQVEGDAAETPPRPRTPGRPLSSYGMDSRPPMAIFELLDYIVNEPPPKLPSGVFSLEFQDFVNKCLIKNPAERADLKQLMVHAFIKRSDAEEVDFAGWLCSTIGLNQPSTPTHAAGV
Description: Inhibition of MEK1 (unknown origin) using Ser/Thr 03 peptide substrate after 4 hrs by fluorescence assay

[10] = Clearance in Sprague-Dawley rat at 2 mg/kg, iv; assay type: ADME, organism-based; settings: in vivo
[11] = Volume of distribution at steady state in Sprague-Dawley rat at 2 mg/kg, iv; assay type: ADME, organism-based; settings: in vivo, read-out: Vdss
[12] = Oral bioavailability in Sprague-Dawley rat at 10 mg/kg via gavage; assay type: ADME, organism-based; settings: in vivo
[13] = tested on: Calu-6; assay: Antiproliferative activity against human Calu6 cells harboring KRAS mutant/wild type BRAF/PIK3CA after 72 hrs by CCK8 assay; assay type: functional, cell-based
[14] = tested on: SW480; assay: Antiproliferative activity against human SW480 cells harboring KRAS mutant/wild type BRAF/PIK3CA after 72 hrs by CCK8 assay; assay type: functional, cell-based
[15] = tested on: DLD-1; assay: Antiproliferative activity against human DLD1 cells harboring KRAS mutant/wild type BRAF/PIK3CA D549N mutant after 72 hrs by CCK8 assay; assay type: functional, cell-based
[16] = tested on: HT-29; assay: Antiproliferative activity against human HT-29 cells harboring BRAF mutant/PIK3CA mutant/wild type KRAS after 72 hrs by CCK8 assay; assay type: functional, cell-based
[17] = tested on: U-937; assay: Antiproliferative activity against human U937 cells harboring wild type BRAF/KRAS/PIK3CA after 72 hrs by CCK8 assay; assay type: functional, cell-based
[18] = tested on: HeLa; assay: Antiproliferative activity against human HeLa cells harboring wild type BRAF/KRAS/PIK3CA after 72 hrs by CCK8 assay; assay type: functional, cell-based
[19] = tested on: NCI-H1299; assay: Antiproliferative activity against human NCI-H1299 cells harboring wild type BRAF/KRAS/PIK3CA after 72 hrs by CCK8 assay; assay type: functional, cell-based

Compound: Cn1cnc2c(F)c(Nc3ccc(Br)cc3Cl)c(C(=O)NOCCO)cc21 [SELUMETINIB]
- IC50 [1]: 59 nM
- Activity [5]: inactive
- Activity [6]: inactive
- inhibition in vivo at 10 mg/kg [7]: 60%
- Activity [8]: Non-Toxic

Compound: O=C(NOC[C@@H](O)CO)c1cc2c(c(F)c1Nc1ccc(I)cc1F)OCC2
- IC50 [1]: 90.1 nM

Compound: O=C(NC[C@@H](O)CO)c1cc2c(c(F)c1Nc1ccc(I)cc1F)OCC2
- IC50 [9]: > 1000 nM

Compound: O=C(NC[C@H](O)CO)c1cc2c(c(F)c1Nc1ccc(I)cc1F)OCC2
- IC50 [9]: > 1000 nM

Compound: O=C(NOC[C@H](O)CO)c1cc2c(c(F)c1Nc1ccc(I)cc1F)OCC2
- IC50 [1]: 7.2 nM
- Cmax [2]: 342 ng/mL
- AUC(0-t) [3]: 1470 ng·h/mL
- half-life [4]: 2 h
- clearance [10]: 73.6 mL/min/kg
- Vd [11]: 9.4 L/kg
- bioavailability [12]: 62%

Compound: O=C(NOCCO)c1cc2c(c(F)c1Nc1ccc(Br)cc1Cl)OCC2
- IC50 [1]: > 1000 nM

Compound: O=C(c1cc2c(c(F)c1Nc1ccc(I)cc1F)OCC2)N1C[C@@H](O)CO1
- IC50 [1]: > 1000 nM
- IC50 [9]: > 1000 nM

Continued, in another order:

- IC50 [1]: 38.4 nM
Compound: O=C(NOCCO)c1cc2c(c(Cl)c1Nc1ccc(I)cc1F)OCC2

- IC50 [1]: 2.5 nM
- Cmax [2]: 695 ng/mL
- AUC(0-t) [3]: 2860 ng·h/mL
- half-life [4]: 3.4 h
Compound: O=C(NOC[C@H](O)CO)c1cc2ccoc2c(F)c1Nc1ccc(I)cc1F

- IC50 [1]: 12 nM
Compound: CC(C)(CO)ONC(=O)c1cc2ccoc2c(F)c1Nc1ccc(I)cc1F

- IC50 [1]: > 1000 nM
Compound: O=C(NOCCO)c1cc2c(cc1Nc1ccc(I)cc1F)OCC2

- IC50 [1]: 2.9 nM
- Cmax [2]: 2080 ng/mL
- AUC(0-t) [3]: 8370 ng·h/mL
- half-life [4]: 1.7 h
Compound: O=C(NOCCO)c1cc2ccoc2c(F)c1Nc1ccc(I)cc1F

- IC50 [1]: 10 nM
Compound: O=C(NOCCO)c1cc2c(c(F)c1Nc1ccc(I)cc1F)OCC2

- IC50 [1]: 76.5 nM
Compound: O=C(NOCCCO)c1cc2ccoc2c(F)c1Nc1ccc(I)cc1F

- IC50 [1]: 4.7 nM
- Cmax [2]: 13600 ng/mL
- AUC(0-t) [3]: 43300 ng·h/mL
- half-life [4]: 2.5 h
- clearance [10]: 3.4 mL/min/kg
- Vd [11]: 0.8 L/kg
- bioavailability [12]: 80%
Compound: O=C(NOC(CO)CO)c1cc2ccoc2c(F)c1Nc1ccc(I)cc1F
- Activity [5]: Active
- Activity [6]: Active
- Activity [13]: Active
- Activity [14]: Active
- Activity [15]: Active
- Activity [16]: Active
- Activity [17]: inactive
- Activity [18]: inactive
- Activity [19]: inactive
- inhibition in vivo at 10 mg/kg [7]: 78%
- Activity [8]: Non-Toxic
